According to US20210047653A1, “COMPOSITIONS AND METHODS FOR REGULATING A BIOLOGICAL PROCESS” (The University of Memphis Research Foundation, priority 2018, published 2021):

Tested on: endogenous BMP-2
Test: CRISPR activation of endogenous BMP-2, qPCR in transfected HEK-293T cells
Format: cell-based, human
Conditions: qPCR 24 hours after transfection with constitutively-expressed dCas9-VPR, normalized to HPRT
Procedure: HEK-293T cells were transfected with constitutively-expressed dCas9-VPR (Addgene #63798) and gRNA-expressing plasmids (Addgene #41824, sequences targeting the 150 bp region of the transcription start site of the endogenous BMP-2 was cloned into the vector; gRNA2 seq: […], gRNA3 seq: […], GFP seq:). After 24 hours, BMP-2 induction was measured by qPCR, following manufacturer protocols. Groups of HEK-293T cells tested were: Untransfected (UT), dCas9-VPR (VPR), GFP, gRNA2, and gRNA3. All groups were normalized to Hypoxanthine-guanine phosphoribosyltransferase (HPRT) expression (FIG. 27). Untransfected, dCas9-VPR, gRNA2, and gRNA3 groups were compared to GFP to elucidate increase in expression levels (FIG. 28).

| Substance | induction of endogenous BMP-2 expression compared to GFP group |
| --- | --- |
| gRNA2: gRNA-expressing plasmid targeting the 150 bp region of the transcription start site of endogenous BMP-2; seq GGCGAGCCGCGCCGCGAAGG (expressed from plasmid) | 112 fold |
| gRNA3: gRNA-expressing plasmid targeting the 150 bp region of the transcription start site of endogenous BMP-2; seq GCTCGCCGGGGATCCCCGAG (expressed from plasmid) | 77 fold |
